Experimental data as given in US20220411372A1, “SMALL-MOLECULE INHIBITORS FOR THE B-CATENIN/B-CELL LYMPHOMA 9 PROTEIN-PROTEIN INTERACTION” (H. Lee Moffitt Cancer Center and Research Institute, Inc., priority 2019, published 2022).

The compounds below were run against T1, β-catenin/BCL9 PPI (Homo sapiens, UniProt P35222) (assay: AlphaScreen competitive inhibition assay of the β-catenin/BCL9 PPI). Settings: Table 4, left half, inhibitors 44-48; read-out: Ki.
T1 construct: Full-length β-catenin (residues 1-781) were cloned into a pET-28b vector; made in house; host or cells: E. coli BL21 DE3 (β-catenin); BCL9 peptide synthesized by InnoPep Inc
T1 sequence (P35222 1-781): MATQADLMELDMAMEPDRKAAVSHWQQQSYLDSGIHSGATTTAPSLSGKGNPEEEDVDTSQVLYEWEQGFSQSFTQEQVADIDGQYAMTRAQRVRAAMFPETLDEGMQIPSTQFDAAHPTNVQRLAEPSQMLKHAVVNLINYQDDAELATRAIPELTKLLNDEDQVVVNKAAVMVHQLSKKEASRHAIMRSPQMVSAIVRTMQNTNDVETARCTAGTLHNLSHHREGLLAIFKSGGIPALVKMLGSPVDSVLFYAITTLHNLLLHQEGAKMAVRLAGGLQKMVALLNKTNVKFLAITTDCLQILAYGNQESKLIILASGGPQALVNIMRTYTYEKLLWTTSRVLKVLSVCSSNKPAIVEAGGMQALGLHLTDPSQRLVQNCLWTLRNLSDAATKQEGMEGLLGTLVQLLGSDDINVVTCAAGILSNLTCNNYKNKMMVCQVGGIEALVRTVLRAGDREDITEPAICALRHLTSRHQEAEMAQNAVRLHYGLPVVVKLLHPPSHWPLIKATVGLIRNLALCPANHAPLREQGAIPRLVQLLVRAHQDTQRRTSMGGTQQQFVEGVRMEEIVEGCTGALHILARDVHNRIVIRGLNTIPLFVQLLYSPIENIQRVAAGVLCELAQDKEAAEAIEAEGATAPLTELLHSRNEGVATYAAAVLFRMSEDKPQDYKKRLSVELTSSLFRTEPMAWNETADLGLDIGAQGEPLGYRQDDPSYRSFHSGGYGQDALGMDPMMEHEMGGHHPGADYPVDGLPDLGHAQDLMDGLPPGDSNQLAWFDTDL
Format: binding
How it was run: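 5 nM biotinylated BCL9 and 40 nM His6-β-catenin preincubated 30 min at 4° C in pH 7.4 Hepes buffer with 0.01% Triton X-100, 0.1% BSA, 1% DMSO; inhibitor added 1 h at 4° C, then 10 μg/mL donor/acceptor beads 1 h.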

Row | Ki [µM] | Compound
1 | < 30 | CN(Cc1ccc(-c2cn[nH]c2)cc1)C(=O)[C@@H]1CCCN(c2cccc(OC(C)(C)C(=O)N3CCNCC3)c2)C1 [Compound 45, (R)-4-(2-(3-(3-((4-(1H-pyrazol-4-yl)benzyl)(methyl)carbamoyl)piperidin-1-yl)phenoxy)-2-methylpropanoyl)piperazin-1-ium chloride]
2 | < 10 | CC(C)N(Cc1ccc(-c2cn[nH]c2)cc1)C(=O)[C@@H]1CCCN(c2cccc(OC(C)(C)C(=O)N3CCNCC3)c2)C1 [Compound 47, (R)-4-(2-(3-(3-((4-(1H-pyrazol-4-yl)benzyl)(isopropyl)carbamoyl)piperidin-1-yl)phenoxy)-2-methylpropanoyl)piperazin-1-ium chloride]
3 | < 90 | CC(C)(Oc1cccc(N2CCC[C@@H](C(=O)N(Cc3ccc(-c4cn[nH]c4)cc3)CC3CC3)C2)c1)C(=O)N1CCNCC1 [Compound 48, (R)-4-(2-(3-(3-((4-(1H-pyrazol-4-yl)benzyl)(cyclopropylmethyl)carbamoyl)piperidin-1-yl)phenoxy)-2-methylpropanoyl)piperazin-1-ium chloride]

Same assay, conditions: Table 4, right half, inhibitors 49-53; read-out: Ki ± SD

Row | Ki [µM] | Compound
4 | < 30 | CC(C)(Oc1cccc(N2CCC[C@@H](C(=O)N(Cc3ccc(-c4cn[nH]c4)cc3)C3CCC3)C2)c1)C(=O)N1CCNCC1 [Compound 49, (R)-4-(2-(3-(3-((4-(1H-pyrazol-4-yl)benzyl)(cyclobutyl)carbamoyl)piperidin-1-yl)phenoxy)-2-methylpropanoyl)piperazin-1-ium chloride]
5 | < 10 | CC(C)(Oc1cccc(N2CCC[C@@H](C(=O)N(Cc3ccc(-c4cn[nH]c4)cc3)C3CCCC3)C2)c1)C(=O)N1CCNCC1 [Compound 50, (R)-4-(2-(3-(3-((4-(1H-pyrazol-4-yl)benzyl)(cyclopentyl)carbamoyl)piperidin-1-yl)phenoxy)-2-methylpropanoyl)piperazin-1-ium chloride]
6 | < 30 | CC(C)(Oc1cccc(N2CCC[C@@H](C(=O)N(Cc3ccc(-c4cn[nH]c4)cc3)C3CCCCC3)C2)c1)C(=O)N1CCNCC1 [Compound 51, (R)-4-(2-(3-(3-((4-(1H-pyrazol-4-yl)benzyl)(cyclohexyl)carbamoyl)piperidin-1-yl)phenoxy)-2-methylpropanoyl)piperazin-1-ium chloride]
7 | < 5 | CCOCCN(Cc1ccc(-c2cn[nH]c2)cc1)C(=O)[C@@H]1CCCN(c2cccc(OC(C)(C)C(=O)N3CCNCC3)c2)C1.Cl [Compound 52, (R)-4-(2-(3-(3-((4-(1H-pyrazol-4-yl)benzyl)(2-ethoxyethyl)carbamoyl)piperidin-1-yl)phenoxy)-2-methylpropanoyl)piperazin-1-ium chloride]
8 | < 90 | CC(C)(Oc1cccc(N2CCC[C@@H](C(=O)N(CCN)Cc3ccc(-c4cn[nH]c4)cc3)C2)c1)C(=O)N1CCNCC1 [Compound 53, (R)-4-(2-(3-(3-((4-(1H-pyrazol-4-yl)benzyl)(2-ammonioethyl)carbamoyl)piperidin-1-yl)phenoxy)-2-methylpropanoyl)piperazin-1-ium chloride]

Same assay, conditions: Table 5, inhibitors 54-62; read-out: Ki

Row | Ki [µM] | Compound
9 | < 10 | CC(C)(Oc1cccc(N2CCC[C@@H](C(=O)N(Cc3ccc(-c4cn[nH]c4)cc3)C3CC3)C2)c1)C(=O)N1CCCNCC1 [Compound 54, (R)-4-(2-(3-(3-((4-(1H-pyrazol-4-yl)benzyl)(cyclopropyl)carbamoyl)piperidin-1-yl)phenoxy)-2-methylpropanoyl)-1,4-diazepan-1-ium chloride]
10 | > 90 | CC(C)(Oc1cccc(N2CCC[C@@H](C(=O)N(Cc3ccc(-c4cn[nH]c4)cc3)C3CC3)C2)c1)C(=O)N1CCOCC1 [Compound 56, (R)-N-(4-(1H-pyrazol-4-yl)benzyl)-N-cyclopropyl-1-(3-((2-methyl-1-morpholino-1-oxopropan-2-yl)oxy)phenyl)piperidine-3-carboxamide]
11 | > 90 | CC(C)(Oc1cccc(N2CCC[C@@H](C(=O)N(Cc3ccc(-c4cn[nH]c4)cc3)C3CC3)C2)c1)C(=O)N1CCCCC1 [Compound 57, (R)-N-(4-(1H-pyrazol-4-yl)benzyl)-N-cyclopropyl-1-(3-((2-methyl-1-oxo-1-(piperidin-1-yl)propan-2-yl)oxy)phenyl)piperidine-3-carboxamide]
12 | < 30 | CC(C)(Oc1cccc(N2CCC[C@@H](C(=O)N(Cc3ccc(-c4cn[nH]c4)cc3)C3CC3)C2)c1)C(=O)N1C[C@H]2CNC[C@H]2C1 [Compound 58, (3aR,6aS)-5-(2-(3-((R)-3-((4-(1H-pyrazol-4-yl)benzyl)(cyclopropyl)carbamoyl)piperidin-1-yl)phenoxy)-2-methylpropanoyl)octahydropyrrolo[3,4-c]pyrrol-2-ium chloride]
13 | < 5 | CC(C)(Oc1cccc(N2CCC[C@@H](C(=O)N(Cc3ccc(-c4cn[nH]c4)cc3)C3CC3)C2)c1)C(=O)N1CCC2(CCNC2)C1 (stereo partly drawn) [Compound 59, 7-(2-(3-((R)-3-((4-(1H-pyrazol-4-yl)benzyl)(cyclopropyl)carbamoyl)piperidin-1-yl)phenoxy)-2-methylpropanoyl)-2,7-diazaspiro[4.4]nonan-2-ium chloride]
14 | < 30 | CC(C)(Oc1cccc(N2CCC[C@@H](C(=O)N(Cc3ccc(-c4cn[nH]c4)cc3)C3CC3)C2)c1)C(=O)N1CC2(CCNCC2)C1 [Compound 60, (R)-2-(2-(3-(3-((4-(1H-pyrazol-4-yl)benzyl)(cyclopropyl)carbamoyl)piperidin-1-yl)phenoxy)-2-methylpropanoyl)-2,7-diazaspiro[3.5]nonan-7-ium 2,2,2-trifluoroacetate]
15 | < 30 | CC(C)(Oc1cccc(N2CCC[C@@H](C(=O)N(Cc3ccc(-c4cn[nH]c4)cc3)C3CC3)C2)c1)C(=O)N1CCC2(CNC2)C1 [Compound 61, (R)-6-(2-(3-(3-((4-(1H-pyrazol-4-yl)benzyl)(cyclopropyl)carbamoyl)piperidin-1-yl)phenoxy)-2-methylpropanoyl)-2,6-diazaspiro[3.4]octan-2-ium 2,2,2-trifluoroacetate]
16 | < 90 | CC(C)(Oc1cccc(N2CCC[C@@H](C(=O)N(Cc3ccc(-c4cn[nH]c4)cc3)C3CC3)C2)c1)C(=O)N1CC2(CNC2)C1 [Compound 62, (R)-6-(2-(3-(3-((4-(1H-pyrazol-4-yl)benzyl)(cyclopropyl)carbamoyl)piperidin-1-yl)phenoxy)-2-methylpropanoyl)-2,6-diazaspiro[3.3]heptan-2-ium 2,2,2-trifluoroacetate]

Same assay, conditions: Table 8, inhibitors 82-92; read-out: Ki

Row | Ki [µM] | Compound
17 | < 10 | O=C([C@@H]1CCCN(c2cccc(OC3(C(=O)N4CCNCC4)CC3)c2)C1)N(Cc1ccc(-c2cn[nH]c2)cc1)C1CC1 [Compound 82, (R)-4-(1-(3-(3-((4-(1H-pyrazol-4-yl)benzyl)(cyclopropyl)carbamoyl)piperidin-1-yl)phenoxy)cyclopropane-1-carbonyl)piperazin-1-ium chloride]
18 | < 90 | O=C([C@@H]1CCCN(c2cccc(OC3(C(=O)N4CCNCC4)CCCC3)c2)C1)N(Cc1ccc(-c2cn[nH]c2)cc1)C1CC1 [Compound 83, (R)-4-(1-(3-(3-((4-(1H-pyrazol-4-yl)benzyl)(cyclopropyl)carbamoyl)piperidin-1-yl)phenoxy)cyclopentane-1-carbonyl)piperazin-1-ium chloride]
19 | < 90 | O=C(c1cccc(N2CCC[C@@H](C(=O)N(Cc3ccc(-c4cn[nH]c4)cc3)C3CC3)C2)c1)N1CCNCC1 [Compound 85, (R)-4-(3-(3-((4-(1H-pyrazol-4-yl)benzyl)(cyclopropyl)carbamoyl)piperidin-1-yl)benzoyl)piperazin-1-ium chloride]
20 | < 30 | O=C(C(Oc1cccc(N2CCC[C@@H](C(=O)N(Cc3ccc(-c4cn[nH]c4)cc3)C3CC3)C2)c1)c1ccccc1)N1CCNCC1 (stereo partly drawn) [Compound 86, 4-(2-(3-((R)-3-((4-(1H-pyrazol-4-yl)benzyl)(cyclopropyl)carbamoyl)piperidin-1-yl)phenoxy)-2-phenylacetyl)piperazin-1-ium chloride]
21 | < 90 | O=C(C(Cc1ccccc1)Oc1cccc(N2CCC[C@@H](C(=O)N(Cc3ccc(-c4cn[nH]c4)cc3)C3CC3)C2)c1)N1CCNCC1 (stereo partly drawn) [Compound 87, 4-(2-(3-((R)-3-((4-(1H-pyrazol-4-yl)benzyl)(cyclopropyl)carbamoyl)piperidin-1-yl)phenoxy)-3-phenylpropanoyl)piperazin-1-ium chloride]
22 | < 90 | CC(C)(Oc1cccc(N2CCC[C@@H](C(=O)N(Cc3ccc(-c4cn[nH]c4)cc3OCCN)C3CC3)C2)c1)C(=O)N1CCNCC1 [Compound 89, (R)-4-(2-(3-(3-((2-(2-ammonioethoxy)-4-(1H-pyrazol-4-yl)benzyl)(cyclopropyl)carbamoyl)piperidin-1-yl)phenoxy)-2-methylpropanoyl)piperazin-1-ium chlorine]

Same assay, conditions: linear alkyl R1 substitutions; FIG. 4A

Row | inhibitory activity (SAR, AlphaScreen) | Compound
23 | maintained the inhibitory activities | CCOCCN(Cc1ccc(-c2cn[nH]c2)cc1)C(=O)[C@@H]1CCCN(c2cccc(OC(C)(C)C(=O)N3CCNCC3)c2)C1.Cl [Compound 52, (R)-4-(2-(3-(3-((4-(1H-pyrazol-4-yl)benzyl)(2-ethoxyethyl)carbamoyl)piperidin-1-yl)phenoxy)-2-methylpropanoyl)piperazin-1-ium chloride]
